Measurements as given in patent US20260365670A1, “EGFR INHIBITORS AND USES THEREOF” (DIZAL (JIANGSU) PHARMACEUTICAL CO., LTD., priority 2022, published 2026).
Like-named read-outs stand apart in the source and are kept apart here.

Legend:
EGFR wild type = target: T1, EGFR wild type (Homo sapiens, UniProt P00533); assay: Inhibition of EGFR wild type biochemical enzymatic activity (HTRF); settings: EGFR wild type, 1 mM ATP, 1 h at room temperature, read-out: IC50 @WT
T1 construct: purchased Carna Bio
Outline: (§1)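 For IC50 determination by four-parameter logistic fit, EDTA-quenched 1 h room-temperature reactions (1 mM ATP, 1 μM TK Substrate-biotin) were read by HTRF. The 665/615 nm emission ratio after 320 nm excitation served as the activity signal.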

EGFR L858R = target: T2, EGFR L858R (Homo sapiens, UniProt P00533, L858R); assay: Inhibition of EGFR L858R biochemical enzymatic activity (HTRF); settings: 1 mM ATP, 1 h at room temperature, read-out: IC50 @L858R
T2 construct: purchased Carna Bio
Outline: as §1

EGFR L858R/T790M = target: T3, EGFR L858R/T790M (Homo sapiens, UniProt P00533, L858R/T790M); assay: Inhibition of EGFR L858R/T790M biochemical enzymatic activity (HTRF); settings: EGFR L858R/T790M, 1 mM ATP, 1 h at room temperature, read-out: IC50 @L858R-T790M
T3 construct: purchased Carna Bio
Outline: as §1

EGFR Exon19Del = target: T4, EGFR Exon19Del (Homo sapiens, UniProt P00533, DEL746-750); assay: Inhibition of EGFR Exon19Del biochemical enzymatic activity (HTRF); settings: EGFR Exon19Del, 1 mM ATP, 1 h at room temperature, read-out: IC50 @Del19
T4 construct: purchased Carna Bio
Outline: as §1

EGFR Exon19Del/T790M = target: T5, EGFR Exon19Del/T790M (Homo sapiens, UniProt P00533, DEL746-750/T790M); assay: Inhibition of EGFR Exon19Del/T790M biochemical enzymatic activity (HTRF); settings: EGFR Exon19Del/T790M, 1 mM ATP, 1 h at room temperature, read-out: IC50 @Del19-T790M
T5 construct: purchased Carna Bio
Outline: as §1

EGFR[T790M/C797S/L858R] = target: T6, EGFR[T790M/C797S/L858R] (Homo sapiens, UniProt P00533, C797S/L858R/T790M); assay: Inhibition of EGFR[T790M/C797S/L858R] biochemical enzymatic activity (HTRF); settings: EGFR[T790M/C797S/L858R], 1 mM ATP, 1 h at room temperature, read-out: IC50 @T790M- C797S - L858R
T6 construct: purchased Carna Bio
Outline: as §1

[1] = target: T7, EGFR[T790M/C797S/d746-750] (Homo sapiens, UniProt P00533, C797S/DEL746-750/T790M); assay: Inhibition of EGFR[T790M/C797S/d746-750] biochemical enzymatic activity (HTRF); settings: EGFR[T790M/C797S/d746-750], 1 mM ATP, 1 h at room temperature, read-out: IC50 @T790M - C797S - Del19
T7 construct: purchased Carna Bio
Outline: as §1

EGFR (d746-750 C797S) = target: T8, EGFR (d746-750 C797S) (Homo sapiens, UniProt P00533, C797S/DEL746-750); assay: Inhibition of EGFR (d746-750 C797S) biochemical enzymatic activity (HTRF); settings: EGFR (d746-750 C797S), 1 mM ATP, 1 h at room temperature, read-out: IC50 @Del19-C797S
T8 construct: purchased signalchem
Outline: as §1

EGFR (C797S L858R) = target: T9, EGFR (C797S L858R) (Homo sapiens, UniProt P00533, C797S/L858R); assay: Inhibition of EGFR (C797S L858R) biochemical enzymatic activity (HTRF); settings: EGFR (C797S L858R), 1 mM ATP, 1 h at room temperature, read-out: IC50 @L858-C797S
T9 construct: purchased signalchem
Outline: as §1

[2] = system: Ba/F3 cells expressing EGFR mutations; assay: Cell proliferation assay, Ba/F3 cells expressing EGFR mutations (CellTiter-Glo, 72 hours); assay type: cell-based
Outline: (§2)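 Ba/F3 cells (5000/well) and PC-9 cells (500/well, RPMI1640 with 10% FBS) were plated overnight and then dosed with a compound concentration series. Viable cells were read at day 0 (G0) and after treatment (G3). GI50 came from curve fits of G0-corrected proliferation relative to DMSO.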

PC-9 = assay: Cell proliferation assay, PC-9 cells (CellTiter-Glo, 72 hours); assay type: cell-based; settings: PC9 cells, read-out: GI50 PC9
Outline: as §2

A-431 = assay: Cell proliferation assay, A-431 cells (GI50, Table 6); assay type: cell-based
[3] = BaF3 cells, EGFR DEL19 - C797S, read-out: GI50 DEL19 - C797S/BaF3
[4] = BaF3 cells, EGFR DEL19 - T790-C797S, read-out: GI50 DEL19 - T790-C797S/BaF3
[5] = BaF3 cells, EGFR L858R - C797S, read-out: GI50 L858R - C797S/BaF3
[6] = BaF3 cells, EGFR L858R - T790-C797S, read-out: GI50 L858R - T790-C797S/BaF3
[7] = BaF3 cells, EGFR L858R - T790M, read-out: GI50 L858R - T790M/BaF3
[8] = BaF3 cells, EGFR L858R, read-out: GI50 L858R/BaF3
[9] = EGFR DEL19 - T790M, read-out: GI50 DEL19 - T790M
[10] = Homo sapiens, A-431, A-431 cells

T4 sequence (P00533 with tags, fused parts or gaps DEL746-750 limits assumed): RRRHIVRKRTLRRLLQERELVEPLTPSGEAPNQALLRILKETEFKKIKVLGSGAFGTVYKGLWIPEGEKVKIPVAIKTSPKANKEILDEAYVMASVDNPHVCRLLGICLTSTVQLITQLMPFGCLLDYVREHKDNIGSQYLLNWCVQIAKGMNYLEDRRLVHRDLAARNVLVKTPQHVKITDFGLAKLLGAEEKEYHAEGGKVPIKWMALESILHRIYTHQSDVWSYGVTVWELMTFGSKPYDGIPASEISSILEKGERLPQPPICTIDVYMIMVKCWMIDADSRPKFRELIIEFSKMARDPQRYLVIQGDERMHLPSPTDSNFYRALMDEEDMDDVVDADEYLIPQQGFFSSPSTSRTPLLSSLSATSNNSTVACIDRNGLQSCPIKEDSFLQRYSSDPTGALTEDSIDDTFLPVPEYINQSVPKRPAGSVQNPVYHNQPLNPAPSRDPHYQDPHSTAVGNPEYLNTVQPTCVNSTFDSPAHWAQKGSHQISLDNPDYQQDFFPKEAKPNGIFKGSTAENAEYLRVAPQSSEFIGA
T9 sequence (P00533 25-1210 C797S/L858R): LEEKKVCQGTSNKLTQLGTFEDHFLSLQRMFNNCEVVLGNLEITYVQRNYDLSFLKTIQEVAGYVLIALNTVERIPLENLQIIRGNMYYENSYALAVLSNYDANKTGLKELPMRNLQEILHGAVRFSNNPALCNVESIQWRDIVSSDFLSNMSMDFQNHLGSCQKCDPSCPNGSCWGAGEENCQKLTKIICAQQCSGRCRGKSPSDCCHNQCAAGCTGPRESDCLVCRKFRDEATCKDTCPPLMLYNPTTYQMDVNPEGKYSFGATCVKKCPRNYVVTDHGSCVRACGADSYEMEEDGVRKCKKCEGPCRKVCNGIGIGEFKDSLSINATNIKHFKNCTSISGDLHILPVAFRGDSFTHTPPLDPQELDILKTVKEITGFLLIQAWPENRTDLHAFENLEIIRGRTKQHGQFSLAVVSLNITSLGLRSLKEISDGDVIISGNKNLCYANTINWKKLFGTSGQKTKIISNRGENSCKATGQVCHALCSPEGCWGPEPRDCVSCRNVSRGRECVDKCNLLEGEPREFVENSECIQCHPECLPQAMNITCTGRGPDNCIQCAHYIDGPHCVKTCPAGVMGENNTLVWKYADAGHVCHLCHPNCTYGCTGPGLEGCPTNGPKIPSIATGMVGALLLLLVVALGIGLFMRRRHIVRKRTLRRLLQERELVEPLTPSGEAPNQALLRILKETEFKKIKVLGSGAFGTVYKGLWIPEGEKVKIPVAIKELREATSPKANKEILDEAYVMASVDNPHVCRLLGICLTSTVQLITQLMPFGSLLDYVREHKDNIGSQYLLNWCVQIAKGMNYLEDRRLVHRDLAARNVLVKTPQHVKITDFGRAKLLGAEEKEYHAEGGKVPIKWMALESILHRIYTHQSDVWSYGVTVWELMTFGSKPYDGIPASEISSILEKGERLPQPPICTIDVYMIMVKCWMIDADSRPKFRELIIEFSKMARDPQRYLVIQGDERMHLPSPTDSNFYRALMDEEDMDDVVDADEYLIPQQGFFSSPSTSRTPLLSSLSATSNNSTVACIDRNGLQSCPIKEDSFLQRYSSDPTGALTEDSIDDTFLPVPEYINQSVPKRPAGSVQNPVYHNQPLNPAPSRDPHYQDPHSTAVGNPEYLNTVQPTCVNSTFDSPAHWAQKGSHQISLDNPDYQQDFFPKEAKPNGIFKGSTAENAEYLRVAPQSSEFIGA
T7 sequence (P00533 with tags, fused parts or gaps DEL746-750/T790M/C797S limits assumed): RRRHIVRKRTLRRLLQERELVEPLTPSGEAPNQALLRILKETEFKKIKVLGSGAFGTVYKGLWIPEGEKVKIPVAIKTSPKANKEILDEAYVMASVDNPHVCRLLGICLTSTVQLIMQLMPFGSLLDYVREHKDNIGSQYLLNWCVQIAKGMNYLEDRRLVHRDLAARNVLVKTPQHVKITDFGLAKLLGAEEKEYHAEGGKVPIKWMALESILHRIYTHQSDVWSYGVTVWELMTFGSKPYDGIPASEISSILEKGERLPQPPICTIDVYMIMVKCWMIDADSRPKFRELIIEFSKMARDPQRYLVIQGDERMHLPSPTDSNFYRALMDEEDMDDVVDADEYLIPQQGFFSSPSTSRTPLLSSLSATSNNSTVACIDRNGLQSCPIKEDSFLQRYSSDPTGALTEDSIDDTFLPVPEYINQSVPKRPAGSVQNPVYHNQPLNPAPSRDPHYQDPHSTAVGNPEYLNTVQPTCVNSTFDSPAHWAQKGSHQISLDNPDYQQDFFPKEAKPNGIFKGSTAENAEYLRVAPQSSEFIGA
T1 sequence (P00533 25-1210): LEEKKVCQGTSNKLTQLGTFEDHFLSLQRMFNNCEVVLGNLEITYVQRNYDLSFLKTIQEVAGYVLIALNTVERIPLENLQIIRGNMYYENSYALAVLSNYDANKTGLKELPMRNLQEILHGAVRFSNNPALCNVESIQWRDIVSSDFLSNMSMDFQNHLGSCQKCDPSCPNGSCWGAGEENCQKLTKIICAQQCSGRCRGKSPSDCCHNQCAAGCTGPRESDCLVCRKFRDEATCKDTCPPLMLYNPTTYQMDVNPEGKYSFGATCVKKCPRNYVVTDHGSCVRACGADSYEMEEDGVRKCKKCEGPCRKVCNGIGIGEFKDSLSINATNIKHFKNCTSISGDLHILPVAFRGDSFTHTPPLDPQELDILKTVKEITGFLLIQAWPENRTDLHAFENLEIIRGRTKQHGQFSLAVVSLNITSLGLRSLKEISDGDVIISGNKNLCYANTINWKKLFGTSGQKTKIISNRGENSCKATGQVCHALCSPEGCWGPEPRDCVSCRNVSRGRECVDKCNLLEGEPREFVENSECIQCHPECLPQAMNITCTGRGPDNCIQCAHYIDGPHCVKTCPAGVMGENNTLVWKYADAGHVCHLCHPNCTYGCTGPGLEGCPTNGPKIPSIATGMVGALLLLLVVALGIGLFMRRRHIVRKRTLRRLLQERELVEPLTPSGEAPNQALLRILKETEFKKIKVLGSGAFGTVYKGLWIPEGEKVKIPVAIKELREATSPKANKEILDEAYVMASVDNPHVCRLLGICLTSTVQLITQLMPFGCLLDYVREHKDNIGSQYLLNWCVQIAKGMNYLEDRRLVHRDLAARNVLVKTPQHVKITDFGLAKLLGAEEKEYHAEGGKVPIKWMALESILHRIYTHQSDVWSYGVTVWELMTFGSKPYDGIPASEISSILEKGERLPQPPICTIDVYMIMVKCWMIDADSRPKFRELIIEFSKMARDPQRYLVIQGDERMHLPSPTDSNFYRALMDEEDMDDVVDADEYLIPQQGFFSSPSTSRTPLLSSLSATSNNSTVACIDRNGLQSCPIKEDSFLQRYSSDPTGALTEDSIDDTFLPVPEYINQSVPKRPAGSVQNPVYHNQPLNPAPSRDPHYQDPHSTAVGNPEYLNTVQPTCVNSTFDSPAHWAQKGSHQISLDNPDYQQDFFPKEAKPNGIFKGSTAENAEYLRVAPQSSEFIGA
T3 sequence (P00533 25-1210 T790M/L858R): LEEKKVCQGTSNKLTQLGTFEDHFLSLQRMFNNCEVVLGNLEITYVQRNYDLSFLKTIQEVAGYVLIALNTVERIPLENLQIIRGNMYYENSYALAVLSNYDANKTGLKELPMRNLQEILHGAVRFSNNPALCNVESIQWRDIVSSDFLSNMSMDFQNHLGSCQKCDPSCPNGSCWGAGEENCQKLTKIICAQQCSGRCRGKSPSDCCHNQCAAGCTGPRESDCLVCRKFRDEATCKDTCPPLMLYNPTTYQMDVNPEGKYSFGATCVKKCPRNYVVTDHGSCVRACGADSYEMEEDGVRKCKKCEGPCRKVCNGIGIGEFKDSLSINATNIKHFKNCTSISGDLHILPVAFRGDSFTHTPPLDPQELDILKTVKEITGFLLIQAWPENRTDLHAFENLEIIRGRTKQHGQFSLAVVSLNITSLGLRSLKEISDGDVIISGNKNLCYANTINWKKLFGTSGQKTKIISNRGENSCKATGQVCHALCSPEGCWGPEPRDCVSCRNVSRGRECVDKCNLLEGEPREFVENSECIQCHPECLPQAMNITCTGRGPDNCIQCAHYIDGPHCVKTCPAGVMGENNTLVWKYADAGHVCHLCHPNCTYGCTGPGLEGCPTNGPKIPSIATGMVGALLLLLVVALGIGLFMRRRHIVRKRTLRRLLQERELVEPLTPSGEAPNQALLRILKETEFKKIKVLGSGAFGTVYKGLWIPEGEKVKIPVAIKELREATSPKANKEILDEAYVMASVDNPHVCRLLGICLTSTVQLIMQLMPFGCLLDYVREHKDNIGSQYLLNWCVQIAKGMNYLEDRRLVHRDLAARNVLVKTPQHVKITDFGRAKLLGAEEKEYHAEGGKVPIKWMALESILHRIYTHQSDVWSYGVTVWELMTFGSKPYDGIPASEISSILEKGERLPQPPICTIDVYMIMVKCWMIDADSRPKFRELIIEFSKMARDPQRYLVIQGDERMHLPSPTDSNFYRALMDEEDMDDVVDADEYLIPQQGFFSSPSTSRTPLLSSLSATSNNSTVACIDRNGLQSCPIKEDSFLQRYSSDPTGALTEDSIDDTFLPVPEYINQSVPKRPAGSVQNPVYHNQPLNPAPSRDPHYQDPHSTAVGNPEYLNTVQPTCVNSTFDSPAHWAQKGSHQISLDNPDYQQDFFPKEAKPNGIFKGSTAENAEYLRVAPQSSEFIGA

SMILES	IC50 (EGFR wild type)	IC50 (EGFR L858R)	IC50 (EGFR L858R/T790M)	IC50 (EGFR Exon19Del)	IC50 (EGFR Exon19Del/T790M)	IC50 (EGFR[T790M/C797S/L858R])	IC50 [1]	IC50 (EGFR (d746-750 C797S))	IC50 (EGFR (C797S L858R))	GI50 [2, 3]	GI50 [2, 4]	GI50 [2, 5]	GI50 [2, 6]	GI50 [2, 7]	GI50 [2, 8]	GI50 [2, 9]	GI50 (PC-9)	GI50 (A-431; [10])	GI50 (A-431; A-431 cells)
Cc1cc2cc(n1)-c1cnn(C)c1OCCN1CC3CCC(C3)(C1)n1c(nc3ccc(N4CCC5(CN(C)C5)C4)cc31)NC2=O (single isomer, unassigned) [Example B50B]	413 nM	26 nM	3 nM	5.1 nM	3.6 nM	1.5 nM	2.4 nM	2.1 nM	7 nM	2 nM	2 nM	4 nM	2 nM	2 nM	7 nM	2 nM	8 nM	1570 nM	–
Cc1cc2cc(n1)-c1cnn(C)c1OCCN1CC3CCC(C3)(C1)n1c(nc3ccc(N4CCC5(CCN(C)CC5)C4)cc31)NC2=O (single isomer, unassigned) [Example B51B]	546 nM	21 nM	5.9 nM	6.1 nM	5.6 nM	2.9 nM	3.4 nM	3.5 nM	8.4 nM	2 nM	2 nM	4 nM	2 nM	2 nM	8 nM	2 nM	8 nM	3030 nM	–
Cc1cc2cc(n1)-c1cnn(C)c1OCCN1CC3CCC(C3)(C1)n1c(nc3ccc(N4CCC5(CCN(C)C5)CC4)cc31)NC2=O (single isomer, unassigned) [Example B52A]	> 5000 nM	> 5000 nM	> 5000 nM	> 5000 nM	100 nM	> 5000 nM	37 nM	2050 nM	> 5000 nM	102 nM	169 nM	180 nM	41 nM	191 nM	176 nM	363 nM	311 nM	–	7020 nM
Cc1cc2cc(n1)-c1cnn(C)c1OCCN1CC3CCC(C3)(C1)n1c(nc3ccc(N4CCC5(CCN(C)C5)CC4)cc31)NC2=O (single isomer, unassigned) [Example B52B]	8.3 nM	6 nM	3.5 nM	5.4 nM	4.5 nM	1.6 nM	2 nM	2.4 nM	3.2 nM	2 nM	2 nM	2 nM	2 nM	2 nM	2 nM	7 nM	4 nM	–	879 nM
Cc1cc2cc(n1)-c1cnn(C)c1OCCN1CC3CCC(C3)(C1)n1c(nc3ccc(N4CC5CC4CN5C)cc31)NC2=O (single isomer, unassigned) [Example B53B]	971 nM	53 nM	2.6 nM	5.2 nM	3.9 nM	1.7 nM	1.9 nM	1.9 nM	9.5 nM	2 nM	2 nM	4 nM	2 nM	2 nM	13 nM	6 nM	10 nM	2570 nM	–
Cc1cc2cc(n1)-c1cnn(C)c1OCCN1CC3CCC(C3)(C1)n1c(nc3ccc(N4CCC5(CC4)CCN5C)cc31)NC2=O (single isomer, unassigned) [Example B54A]	> 5000 nM	> 5000 nM	> 5000 nM	> 5000 nM	647 nM	> 5000 nM	233 nM	4720 nM	> 5000 nM	280 nM	241 nM	584 nM	107 nM	298 nM	801 nM	527 nM	515 nM	–	3410 nM

The next lines start with the values.

IC50 (EGFR wild type)	IC50 (EGFR L858R)	IC50 (EGFR L858R/T790M)	IC50 (EGFR Exon19Del)	IC50 (EGFR Exon19Del/T790M)	IC50 (EGFR[T790M/C797S/L858R])	IC50 [1]	IC50 (EGFR (d746-750 C797S))	IC50 (EGFR (C797S L858R))	GI50 [2, 3]	GI50 [2, 4]	GI50 [2, 5]	GI50 [2, 6]	GI50 [2, 7]	GI50 [2, 8]	GI50 [2, 9]	GI50 (PC-9)	GI50 (A-431; [10])	GI50 (A-431; A-431 cells)	SMILES
121 nM	13 nM	3.1 nM	4.9 nM	3.9 nM	1.6 nM	2.5 nM	2 nM	3.9 nM	2 nM	2 nM	2 nM	2 nM	2 nM	2 nM	6 nM	3 nM	–	795 nM	Cc1cc2cc(n1)-c1cnn(C)c1OCCN1CC3CCC(C3)(C1)n1c(nc3ccc(N4CCC5(CC4)CCN5C)cc31)NC2=O (single isomer, unassigned) [Example B54B]
> 5000 nM	> 5000 nM	> 5000 nM	> 5000 nM	> 5000 nM	> 5000 nM	2740 nM	> 5000 nM	> 5000 nM	549 nM	638 nM	2560 nM	350 nM	939 nM	4180 nM	1100 nM	1930 nM	–	7540 nM	Cc1cc2cc(n1)-c1cnn(C)c1OCCN1CC3CCC(C3)(C1)n1c(nc3ccc(N4CCN(C5CC5)CC4)cc31)NC2=O (single isomer, unassigned) [Example B55A]
1830 nM	64 nM	2.3 nM	4.3 nM	3.2 nM	1.5 nM	1.6 nM	1.7 nM	6 nM	2 nM	2 nM	11 nM	2 nM	2 nM	17 nM	7 nM	10 nM	–	2080 nM	Cc1cc2cc(n1)-c1cnn(C)c1OCCN1CC3CCC(C3)(C1)n1c(nc3ccc(N4CCN(C5CC5)CC4)cc31)NC2=O (single isomer, unassigned) [Example B55B]
392 nM	26 nM	3 nM	4.4 nM	4.1 nM	1.6 nM	2.3 nM	1.7 nM	5.1 nM	2 nM	2 nM	5 nM	2 nM	2 nM	12 nM	7 nM	10 nM	426 nM	–	CCN1CCN(c2ccc3nc4n(c3c2)C23CCC(CN(CCOc5c(cnn5C)-c5cc(cc(C)n5)C(=O)N4)C2)C3)CC1 (single isomer, unassigned) [Example B56B]
543 nM	31 nM	3.7 nM	6.1 nM	4.3 nM	1.8 nM	2.6 nM	2.1 nM	6 nM	2 nM	2 nM	8 nM	2 nM	2 nM	9 nM	2 nM	8 nM	257 nM	–	Cc1cc2cc(n1)-c1cnn(C)c1OCCN1CC3CCC(C3)(C1)n1c(nc3ccc(N4CCN(C(C)C)CC4)cc31)NC2=O (single isomer, unassigned) [Example B57B]
